Assay: T3 promoter assay cell test (luciferase reporter under thyroid hormone-regulated promoter)
Format: cell-based
Settings: Homo sapiens; HepG2 luciferase reporter with thyroid hormone-responsive element; costimulator retinoic acid; incubation 48 or 72 hours; four replicates
Experimental: The activity of the compounds according to the invention can be tested for example in vitro by the known T3 promoter assay cell test which is described below.
T3 Promoter Assay Cell Test
The test is carried out with a stably transfected human HepG2 hepatocarcinoma cell which expresses a luciferase gene under the control of a thyroid hormone-regulated promoter. The vector used for the transfection has upstream of the luciferase gene a minimal thymidine kinase promoter with a thyroid hormone-responsive element (TRE) which consists of two inverted palindromes each of 12 bp and of an 8 bp spacer.
For the test, the cell cultures are seeded in Eagle's minimal essential medium in 96-well plates with the following additions: glutamine, tricine, sodium pyruvate, nonessential amino acids, insulin, selenium and transferrin. The cultures are grown at 37° C. with a 10% CO2 atmosphere for 48 hours. In serial dilutions of test substance or reference compound (triiodothyronine=T3, thyroxine=T4) and costimulator retinoic acid are added to the test cultures and the latter are incubated as previously for a further 48 or 72 hours. Each substance concentration is tested in four replicates. To determine the luciferase induced by T3 or other substances, the cells are subsequently lysed by adding a Triton- and luciferin-containing buffer and measured immediately in a luminometer. The EC50 values for each compound are calculated (see Table 1).

Compound	EC50 [µM]
CCOC(=O)C(=O)Nc1cc(C)c(Oc2ccc(O)c(NC(=O)CCc3ccccc3)c2)c(C)c1 [Example 8, Ethyl (4-{4-hydroxy-3-[(3-phenylpropanoyl)amino]phenoxy}-3,5-dimethylanilino)(oxo)acetate]	0.02
CCOC(=O)C(=O)Nc1cc(C)c(Oc2ccc(O)c(C(=O)N(C)C3CCCCC3)c2)c(C)c1 [Example 16, Ethyl [4-(3-{[cyclohexyl(methyl)amino]carbonyl}-4-hydroxyphenoxy)-3,5-dimethylanilino](oxo)acetate]	0.028
CCCN(Cc1ccccc1)Cc1cc(Oc2c(C)cc(NC(=O)C(=O)OCC)cc2C)ccc1O [Example 29]	0.0024
CCOC(=O)C(=O)Nc1cc(C)c(Oc2ccc(O)c(CN(Cc3ccccc3)Cc3ccccc3)c2)c(C)c1 [Example 54]	0.0067
CCCCCCCC(=O)N(Cc1cc(Oc2c(C)cc(NC(=O)C(=O)OCC)cc2C)ccc1O)c1ccc(F)cc1 [Example 122]	0.055
CCOC(=O)C(=O)Nc1cc(C)c(Oc2ccc(O)c(NC(=O)C(C)Oc3ccc(Cl)cc3C)c2)c(C)c1 (centres unmarked) [Example 190]	0.014
Cc1cc(N)cc(C)c1Oc1ccc(O)c(NC(=O)NC(C)c2ccccc2)c1 (centres unmarked) [Example 204]	0.061
CCOC(=O)C(=O)Nc1cc(C)c(Oc2ccc(O)c(C(=O)NC(CC)c3ccccc3)c2)c(C)c1 (centres unmarked) [Example 260]	0.012
